Source: US10392428B2, “GLP-1 derivatives and uses thereof” (Novo Nordisk A/S, priority 2014, dated 2019)
Read-outs that look alike come from different tables or passages of the source.

Key:
[1] = Pharmacokinetic study in minipigs (i.v.); conditions: male, Göttingen, minipig, in vivo, iv, minipigs, i.v., harmonic mean, read-out: Terminal half-live (converted)
Description: The derivatives of Examples 12, 14, and 15 were dosed 2 nmol/kg. The derivatives of Examples 1 and 2 were dosed 15 nmol/kg.

[2] = target: T1, human GLP-1 receptor (Homo sapiens, UniProt P43220); assay: GLP-1 receptor binding: competitive binding assay (125I-GLP-1, SPA) on isolated membranes at low and high HSA
T1 construct: expressed in transfected cells; host or cells: membrane preparation from BHK cells, clone FCW467-12A (parent line BHKTS13)
T1 sequence (P43220 24-463): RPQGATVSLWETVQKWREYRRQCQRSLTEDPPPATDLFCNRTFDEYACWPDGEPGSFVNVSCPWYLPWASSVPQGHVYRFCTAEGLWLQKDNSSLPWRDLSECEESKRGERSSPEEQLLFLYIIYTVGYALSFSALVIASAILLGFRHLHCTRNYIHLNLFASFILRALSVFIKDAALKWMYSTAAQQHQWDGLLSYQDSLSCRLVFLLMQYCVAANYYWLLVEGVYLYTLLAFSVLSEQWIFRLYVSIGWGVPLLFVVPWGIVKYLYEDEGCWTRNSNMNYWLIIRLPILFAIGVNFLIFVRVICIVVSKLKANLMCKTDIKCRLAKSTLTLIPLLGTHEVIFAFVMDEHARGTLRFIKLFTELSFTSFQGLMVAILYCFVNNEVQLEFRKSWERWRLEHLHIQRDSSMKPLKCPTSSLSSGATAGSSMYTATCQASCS
Description: The purpose of this example is to test the receptor binding of the GLP-1 derivatives in vitro. The receptor binding is a measure of affinity of a derivative for the human GLP-1 receptor.
Each derivative is added in a series of concentrations to isolated membranes containing the human GLP-1 receptor and displacement of the labelled ligand is monitored. The receptor binding is reported as the concentration at which half of the labelled ligand is displaced from the receptor, the IC50 value.
Buffer 1 consisted of 20 mM Na-HEPES plus 10 mM EDTA and pH was adjusted to 7.4. Buffer 2 consisted of 20 mM Na-HEPES plus 0.1 mM EDTA and pH was adjusted to 7.4. Assay buffer consisted of 50 mM HEPES supplemented with 5 mM EGTA, 5 mM MgCl2, 0.005% Tween 20 and pH was adjusted to 7.4. An 8% albumin stock consisted of HSA dissolved at 8% (w/v) in assay buffer. An 0.02% albumin stock consisted of HSA dissolved at 0.02% (w/v) in assay buffer.
The cells express the human GLP-1 receptor.
The cells were grown at 5% CO2 in DMEM, 10% fetal calf serum, 1% Pen/Strep (Penicillin/Streptomycin) and 1.0 mg/ml of the selection marker G418.
To make a membrane preparation the cells were grown to approximately 80% confluence. The cells were washed twice in phosphate-buffered saline and harvested. The cells were pelleted using a brief centrifugation and the cell pellet was kept on ice. […] The homogenate was centrifuged for 15 minutes. The pellet was re-suspended (homogenised) in 10 ml buffer 2 and centrifuged. This step was repeated once more. The resulting pellet was re-suspended in buffer 2 and the protein concentration was determined. The membranes were aliquoted and stored at minus 80° C.
For the receptor binding assay in the presence of low HSA (0.005%) 50 μl of the assay buffer was added to each well of an assay plate.
For the receptor binding assay in the presence of high HSA (2%) 50 μl of the 8% albumin stock was added to each well of an assay plate.
Cell membrane aliquots were thawed and diluted to their working concentration. Fifty μl were added to each well in the assay plate.
WGA SPA beads were suspended in assay buffer at 20 mg/ml. The suspension was diluted to 10 mg/ml in assay buffer just prior to addition to the assay plate. Fifty μl were added to each well in the assay plate.
A 25 μl aliquot was reserved for measuring total counts/well.
The assay plate was incubated for 2 h at 30° C.
The assay plate was centrifuged for 10 min.
The assay plate was read in a Packard TopCount NXT instrument.
The data from the TopCount instrument were transferred to Graph Pad Prism software. Individual replicates were analysed using non-linear regression. IC50 values were calculated by the software and reported in nM. The reported values are averages of all of the measured values for each compound.

[3] = High HSA IC50 (nM), high HSA (2.0% final assay concentration)

Compound | IC50 [2, 3] | half-life ([1]; 2 nmol/kg) | also measured
CC[C@H](C)[C@H](NC(=O)[C@H](Cc1ccccc1)NC(=O)[C@H](CCC(=O)O)NC(=O)[C@H](CCCNC(=N)N)NC(=O)[C@H](C)NC(=O)[C@H](C)NC(=O)[C@H](CCC(N)=O)NC(=O)[C@H](CCC(=O)O)NC(=O)[C@H](CCC(=O)O)NC(=O)[C@H](CC(C)C)NC(=O)[C@H](Cc1ccc(O)cc1)NC(=O)[C@H](CO)NC(=O)[C@H](CO)NC(=O)[C@@H](NC(=O)[C@H](CC(=O)O)NC(=O)[C@H](CO)NC(=O)[C@@H](NC(=O)[C@H](Cc1ccccc1)NC(=O)[C@@H](NC(=O)CNC(=O)[C@H](CCC(=O)O)NC(=O)C(C)(C)NC(=O)[C@@H](N)Cc1c[nH]cn1)[C@@H](C)O)[C@@H](C)O)C(C)C)C(=O)N[C@@H](C)C(=O)N[C@@H](Cc1c[nH]c2ccccc12)C(=O)N[C@@H](CC(C)C)C(=O)N[C@H](C(=O)N[C@@H](CCCNC(=N)N)C(=O)NCC(=O)N[C@@H](CCCNC(=N)N)C(=O)N[C@@H](CCCCNC(=O)COCCOCCNC(=O)[C@H](CCCCNC(=O)COCCOCCNC(=O)COCCOCCNC(=O)CC[C@H](NC(=O)[C@H]1CC[C@H](CNC(=O)CCCCCCCCCCCCCCCCCCC(=O)O)CC1)C(=O)O)NC(=O)COCCOCCNC(=O)COCCOCCNC(=O)CC[C@H](NC(=O)[C@H]1CC[C@H](CNC(=O)CCCCCCCCCCCCCCCCCCC(=O)O)CC1)C(=O)O)C(=O)O)C(C)C [Example 1, N{Epsilon-37}-[2-[2-[2-[[(2S)-2,6-bis[[2-[2-[2-[[2-[2-[2-[[(4S)-4-carboxy-4-[[4-[(19-carboxynonadecanoylamino)methyl]cyclohexanecarbonyl]amino]butanoyl]amino]ethoxy]ethoxy]acetyl]amino]ethoxy]ethoxy]acetyl]amino]hexanoyl]amino]ethoxy]ethoxy]acetyl]-[Aib8,Glu22,Arg26,Arg34,Lys37]-GLP-1-(7-37)-peptide] | 140 nM | – | half-life ([1]; 15 nmol/kg): 162 h
CC[C@H](C)[C@H](NC(=O)[C@H](Cc1ccccc1)NC(=O)[C@H](CCC(=O)O)NC(=O)[C@H](CCCNC(=N)N)NC(=O)[C@H](C)NC(=O)[C@H](C)NC(=O)[C@H](CCC(N)=O)NC(=O)[C@H](CCC(=O)O)NC(=O)[C@H](CCC(=O)O)NC(=O)[C@H](CC(C)C)NC(=O)[C@H](Cc1ccc(O)cc1)NC(=O)[C@H](CO)NC(=O)[C@H](CO)NC(=O)[C@@H](NC(=O)[C@H](CC(=O)O)NC(=O)[C@H](CO)NC(=O)[C@@H](NC(=O)[C@H](Cc1ccccc1)NC(=O)[C@@H](NC(=O)CNC(=O)[C@H](CCC(=O)O)NC(=O)C(C)(C)NC(=O)[C@@H](N)Cc1c[nH]cn1)[C@@H](C)O)[C@@H](C)O)C(C)C)C(=O)N[C@@H](C)C(=O)N[C@@H](Cc1c[nH]c2ccccc12)C(=O)N[C@@H](CC(C)C)C(=O)N[C@H](C(=O)N[C@@H](CCCNC(=N)N)C(=O)NCC(=O)N[C@@H](CCCNC(=N)N)C(=O)N[C@@H](CCCCNC(=O)[C@@H](N)CCCCNC(=O)[C@@H](N)CCCCNC(=O)[C@H](CCCCNC(=O)CC[C@H](NC(=O)[C@H]1CC[C@H](CNC(=O)CCCCCCCCCCCCCCCCCCC(=O)O)CC1)C(=O)O)NC(=O)CC[C@H](NC(=O)[C@H]1CC[C@H](CNC(=O)CCCCCCCCCCCCCCCCCCC(=O)O)CC1)C(=O)O)C(=O)O)C(C)C [Example 9, N{Epsilon-37}-[(2S)-2-amino-6-[[(2S)-2-amino-6-[[(2S)-2,6-bis[[(4S)-4-carboxy-4-[[4-[(19-carboxynonadecanoylamino)methyl]cyclohexanecarbonyl]amino]butanoyl]amino]hexanoyl]amino]hexanoyl]amino]hexanoyl]-[Aib8,Glu22,Arg26,Arg34,Lys37]-GLP-1-(7-37)-peptide] | 150 nM | – | –
CC[C@H](C)[C@H](NC(=O)[C@H](Cc1ccccc1)NC(=O)[C@H](CCC(=O)O)NC(=O)[C@H](CCCNC(=N)N)NC(=O)[C@H](C)NC(=O)[C@H](C)NC(=O)[C@H](CCC(N)=O)NC(=O)[C@H](CCC(=O)O)NC(=O)[C@H](CCC(=O)O)NC(=O)[C@H](CC(C)C)NC(=O)[C@H](Cc1ccc(O)cc1)NC(=O)[C@H](CO)NC(=O)[C@H](CO)NC(=O)[C@@H](NC(=O)[C@H](CC(=O)O)NC(=O)[C@H](CO)NC(=O)[C@@H](NC(=O)[C@H](Cc1ccccc1)NC(=O)[C@@H](NC(=O)CNC(=O)[C@H](CCC(=O)O)NC(=O)C(C)(C)NC(=O)[C@@H](N)Cc1c[nH]cn1)[C@@H](C)O)[C@@H](C)O)C(C)C)C(=O)N[C@@H](C)C(=O)N[C@@H](Cc1c[nH]c2ccccc12)C(=O)N[C@@H](CC(C)C)C(=O)N[C@H](C(=O)N[C@@H](CCCNC(=N)N)C(=O)NCC(=O)N[C@@H](CCCNC(=N)N)C(=O)N[C@@H](CCCCNC(=O)COCCOCCNC(=O)COCCOCCNC(=O)COCCOCCNC(=O)COCCOCCNC(=O)COCCOCCNC(=O)COCCOCCNC(=O)COCCOCCNC(=O)COCCOCCNC(=O)[C@H](CCCCNC(=O)CC[C@H](NC(=O)[C@H]1CC[C@H](CNC(=O)CCCCCCCCCCCCCCCCCCC(=O)O)CC1)C(=O)O)NC(=O)CC[C@H](NC(=O)[C@H]1CC[C@H](CNC(=O)CCCCCCCCCCCCCCCCCCC(=O)O)CC1)C(=O)O)C(=O)O)C(C)C [Example 13] | – | – | half-life ([1]; 5 nmol/kg): 119 h
CC[C@H](C)[C@H](NC(=O)[C@H](Cc1ccccc1)NC(=O)[C@H](CCC(=O)O)NC(=O)[C@H](CCCNC(=N)N)NC(=O)[C@H](C)NC(=O)[C@H](C)NC(=O)[C@H](CCC(N)=O)NC(=O)[C@H](CCC(=O)O)NC(=O)[C@H](CCC(=O)O)NC(=O)[C@H](CC(C)C)NC(=O)[C@H](Cc1ccc(O)cc1)NC(=O)[C@H](CO)NC(=O)[C@H](CO)NC(=O)[C@@H](NC(=O)[C@H](CC(=O)O)NC(=O)[C@H](CO)NC(=O)[C@@H](NC(=O)[C@H](Cc1ccccc1)NC(=O)[C@@H](NC(=O)CNC(=O)[C@H](CCC(=O)O)NC(=O)C(C)(C)NC(=O)[C@@H](N)Cc1c[nH]cn1)[C@@H](C)O)[C@@H](C)O)C(C)C)C(=O)N[C@@H](C)C(=O)N[C@@H](Cc1c[nH]c2ccccc12)C(=O)N[C@@H](CC(C)C)C(=O)N[C@H](C(=O)N[C@@H](CCCNC(=N)N)C(=O)NCC(=O)N[C@@H](CCCNC(=N)N)C(=O)N[C@@H](CCCCNC(=O)COCCOCCNC(=O)COCCOCCNC(=O)[C@H](CCCCNC(=O)COCCOCCNC(=O)COCCOCCNC(=O)COCCOCCNC(=O)COCCOCCNC(=O)CC[C@H](NC(=O)[C@H]1CC[C@H](CNC(=O)CCCCCCCCCCCCCCCCCCC(=O)O)CC1)C(=O)O)NC(=O)COCCOCCNC(=O)COCCOCCNC(=O)COCCOCCNC(=O)COCCOCCNC(=O)CC[C@H](NC(=O)[C@H]1CC[C@H](CNC(=O)CCCCCCCCCCCCCCCCCCC(=O)O)CC1)C(=O)O)C(=O)O)C(C)C [Example 14] | – | 135 h | –
CC[C@H](C)[C@H](NC(=O)[C@H](Cc1ccccc1)NC(=O)[C@H](CCC(=O)O)NC(=O)[C@H](CCCNC(=N)N)NC(=O)[C@H](C)NC(=O)[C@H](C)NC(=O)[C@H](CCC(N)=O)NC(=O)[C@H](CCC(=O)O)NC(=O)[C@H](CCC(=O)O)NC(=O)[C@H](CC(C)C)NC(=O)[C@H](Cc1ccc(O)cc1)NC(=O)[C@H](CO)NC(=O)[C@H](CO)NC(=O)[C@@H](NC(=O)[C@H](CC(=O)O)NC(=O)[C@H](CO)NC(=O)[C@@H](NC(=O)[C@H](Cc1ccccc1)NC(=O)[C@@H](NC(=O)CNC(=O)[C@H](CCC(=O)O)NC(=O)C(C)(C)NC(=O)[C@@H](N)Cc1c[nH]cn1)[C@@H](C)O)[C@@H](C)O)C(C)C)C(=O)N[C@@H](C)C(=O)N[C@@H](Cc1c[nH]c2ccccc12)C(=O)N[C@@H](CC(C)C)C(=O)N[C@H](C(=O)N[C@@H](CCCNC(=N)N)C(=O)NCC(=O)N[C@@H](CCCNC(=N)N)C(=O)N[C@@H](CCCCNC(=O)COCCOCCNC(=O)COCCOCCNC(=O)COCCOCCNC(=O)COCCOCCNC(=O)[C@H](CCCCNC(=O)COCCOCCNC(=O)COCCOCCNC(=O)CC[C@H](NC(=O)[C@H]1CC[C@H](CNC(=O)CCCCCCCCCCCCCCCCCCC(=O)O)CC1)C(=O)O)NC(=O)COCCOCCNC(=O)COCCOCCNC(=O)CC[C@H](NC(=O)[C@H]1CC[C@H](CNC(=O)CCCCCCCCCCCCCCCCCCC(=O)O)CC1)C(=O)O)C(=O)O)C(C)C [Example 15] | – | 142 h | –
CC[C@H](C)[C@H](NC(=O)[C@H](Cc1ccccc1)NC(=O)[C@H](CCC(=O)O)NC(=O)[C@H](CCCNC(=N)N)NC(=O)[C@H](C)NC(=O)[C@H](C)NC(=O)[C@H](CCC(N)=O)NC(=O)[C@H](CCC(=O)O)NC(=O)[C@H](CCC(=O)O)NC(=O)[C@H](CC(C)C)NC(=O)[C@H](Cc1ccc(O)cc1)NC(=O)[C@H](CO)NC(=O)[C@H](CO)NC(=O)[C@@H](NC(=O)[C@H](CC(=O)O)NC(=O)[C@H](CO)NC(=O)[C@@H](NC(=O)[C@H](Cc1ccccc1)NC(=O)[C@@H](NC(=O)CNC(=O)[C@H](CCC(=O)O)NC(=O)C(C)(C)NC(=O)[C@@H](N)Cc1c[nH]cn1)[C@@H](C)O)[C@@H](C)O)C(C)C)C(=O)N[C@@H](C)C(=O)N[C@@H](Cc1c[nH]c2ccccc12)C(=O)N[C@@H](CC(C)C)C(=O)N[C@H](C(=O)N[C@@H](CCCNC(=N)N)C(=O)NCC(=O)N[C@@H](CCCNC(=N)N)C(=O)N[C@@H](CCCCNC(=O)COCCOCCNC(=O)COCCOCCNC(=O)COCCOCCNC(=O)COCCOCCNC(=O)[C@H](CCCCNC(=O)COCCOCCNC(=O)CC[C@H](NC(=O)[C@H]1CC[C@H](CNC(=O)CCCCCCCCCCCCCCCCCCC(=O)O)CC1)C(=O)O)NC(=O)COCCOCCNC(=O)CC[C@H](NC(=O)[C@H]1CC[C@H](CNC(=O)CCCCCCCCCCCCCCCCCCC(=O)O)CC1)C(=O)O)C(=O)O)C(C)C [Example 21, N{Epsilon-37}-[2-[2-[2-[[2-[2-[2-[[2-[2-[2-[[2-[2-[2-[[(2S)-2,6-bis[[2-[2-[2-[[(4S)-4-carboxy-4-[[4-[(19-carboxynonadecanoylamino)methyl]cyclohexanecarbonyl]amino]butanoyl]amino]ethoxy]ethoxy]acetyl]amino]hexanoyl]amino]ethoxy]ethoxy]acetyl]amino]ethoxy]ethoxy]acetyl]amino]ethoxy]ethoxy]acetyl]amino]ethoxy]ethoxy]acetyl]-[Aib8,Glu22,Arg26,Arg34,Lys37]-GLP-1-(7-37)-peptide] | 19 nM | – | IC50 ([2]; Low HSA IC50 (nM), low HSA (max. 0.001% final assay concentration)): 1.5 nM
